Assay results reported in US10596263B2, “Pazopanib formulation” (Novartis AG, priority 2011, dated 2020).

Columns and labels:
[1] = Physical stability (form conversion) of reconstituted pazopanib suspension, monitored by XRPD; type: physicochemical
Description: Regarding the use of buffers, physical stability of the invented suspension was determined to be a function of pH, temperature, buffering system, and buffer strength as shown in Table I (some repeat runs are shown).
By removing the sodium citrate from the buffering system the rate of formation of the citrate salt under both refrigerated and long term storage conditions was impeded. Suspensions containing citric acid and sodium phosphate buffering system at pH 4.0 with buffer strength from 0.05 to 0.20 M and no PVP were all stable up to 43 days at refrigerated conditions. At long term storage conditions of 25° C./60% RH form conversion was detected at day 7 but the citrate salt was first observed on day 20.
Table 4 depicts a qualitatively similar formulation to the exemplary formulation, Example 1. Both formulations were manufactured using the same unit operations and processing parameters. […] At long term storage conditions of 25° C./60% RH or room temperature the physical stability of the comparative suspension monitored by XRPD indicated a mixture of forms were detected at day 7 compared with the exemplary formulation (Table 3) that was stability up to 34 days. It was determined that the use of citric acid and trisodium citrate buffer system speed the conversion to the pazopanib citrate salt. It is believed that this is driven by the smaller buffering capacity of citric acid and trisodium citrate buffer.

[2] = Solubility of pazopanib in water at various pH; type: physicochemical
Excerpt: FIG. 2 is a graph showing the solubility of pazopanib in water at various pH.
Based on the pH-solubility curve of pazopanib (FIG. 2) the solubility profile between pH 3 and pH 6 is on a steep slope and therefore, small changes in pH will have a large change in solubility. At the lower pH levels the citrate and monohydrate salts predominate and at the higher pH the freebase predominates. When the suspension is buffered at pH 3.5 and below with citric acid and sodium phosphate buffering system, the drug substance in the suspension changes form to the hydrate and Citrate salts in less than 17 days after reconstitution under refrigerated storage condition 5° C. […] Therefore, the compositions of this invention are such that when reconstituted they preferably provide a suspension with a pH from 2.5 to 4.5, preferably a pH of from 3.0 to 4.2, and most preferably a pH of from 3.5 to 4.0.

[3] = In-vivo exposure of the drug after micronization; conditions: micronized active substance
Excerpt: The pazopanib active substance is preferably micronized. […] Particle size reduction also helps to improve the mouth-feel of the suspension. Micronization may be achieved using techniques known in the art. According to one embodiment, particle size reduction is achieved through the use of fluid energy jet mill wherein the powder gets suspended in a high velocity nitrogen gas stream in a milling chamber, and particle size is reduced due to the principle of impact and attrition due to the high velocity collisions between particles suspended within the nitrogen gas stream, causing them to break down into smaller particles. Centrifugal force causes the larger, heavy particles to separate from smaller, lighter particles. The small particles are dragged by the escaping fluid stream towards the center of the mill, where they are discharged into filter bags, and the material is then collected into drums. The large particles are thrown outward where they recirculate and re-collide, causing them to breakdown. According to one embodiment, the resulting particle size distribution of pazopanib hydrochloride particles is >90% between 0.61 and 10.0 microns. In another embodiment, at least 50% is from 1 to 10 microns, preferably from 1.1 to 3.9 microns. In another embodiment 90% is 20 microns or less, preferably 10 microns or less.

[4] = Citric Acid/Sodium Citrate 0.2M, initial pH 4.0, PVP 0% wt/wt, 5° C./Ambient
[5] = Citric Acid/Sodium Citrate 0.5M, initial pH 4.0, PVP 0% wt/wt, 25° C./60% RH
[6] = Citric Acid/Sodium Phosphate 0.1M, initial pH 4.0, PVP 0% wt/wt, 25° C./60% RH
[7] = Citric Acid/Sodium Phosphate 0.2M, initial pH 4.0, PVP 0% wt/wt, 25° C./60% RH
[8] = citric acid and sodium phosphate buffer, pH 4.0, 0.05 to 0.20 M, no PVP, 25° C./60% RH

With `Cc1ccc(Nc2nccc(N(C)c3ccc4c(C)n(C)nc4c3)n2)cc1S(N)(=O)=O` [pazopanib, 5-[[4-[(2,3-dimethyl-2H-indazol-6-yl)methylamino]-2-pyrimidinyl]amino]-2-methylbenzenesulfonamide] the “Physical Stability” value ([1]; Citric Acid/Sodium Citrate 0.05M, initial pH 4.0, PVP 0% wt/wt, 5° C./Ambient) was 43 days, the “Physical Stability: conversion to citrate salt by day” value (“Physical Stability: conversion” for short) [1, 4] was “by day 42” and the “Physical Stability: mixture of forms by day” value [1, 4] was “day 21;”. The “Physical Stability: conversion” value ([1]; Citric Acid/Sodium Citrate 0.2M, initial pH 4.0, PVP 0% wt/wt, 25° C./60% RH) was “day 7”, the “Physical Stability: conversion” value ([1]; Citric Acid/Sodium Citrate 0.5M, initial pH 4.0, PVP 0% wt/wt, 5° C./Ambient) was “day 14” and the “Physical Stability: conversion” value [1, 5] was “day 14”. For the same compound, the “Physical Stability: mixture of forms at” value [1, 5] was “initial;”, the “Physical Stability” value ([1]; Citric Acid/Sodium Phosphate 0.05M, initial pH 4.0, PVP 0% wt/wt, 5° C./Ambient) was 43 days and the “Physical Stability” value ([1]; Citric Acid/Sodium Phosphate 0.05M, initial pH 4.0, PVP 0% wt/wt, 25° C./60% RH) was “At least 7 Days;”. The “Physical Stability” value ([1]; Citric Acid/Sodium Phosphate 0.1M, initial pH 4.0, PVP 0% wt/wt, 5° C./Ambient) was 43 days, the “Physical Stability” value [1, 6] was “At least 7 Days;” and the “Physical Stability: mixture of forms by day” value [1, 6] was “day 20”. For the same compound, the “Physical Stability: conversion” value ([1]; Citric Acid/Sodium Phosphate 0.2M, initial pH 3.0, PVP 0% wt/wt, 5° C./Ambient) was “day 17”, the “Physical Stability: conversion” value ([1]; Citric Acid/Sodium Phosphate 0.2M, initial pH 3.2, PVP 0% wt/wt, 5° C./Ambient) was “day 17” and the “Physical Stability: conversion” value ([1]; Citric Acid/Sodium Phosphate 0.2M, initial pH 3.5, PVP 0% wt/wt, 5° C./Ambient) was “day 17”. For the same compound, the “Physical Stability” value ([1]; Citric Acid/Sodium Phosphate 0.2M, initial pH 4.0, PVP 0% wt/wt, 5° C./Ambient) was 43 days, the “Physical Stability” value [1, 7] was “At least 7 Days;” and the “Physical Stability: conversion” value [1, 7] was “day 20”. For the same compound, the Physical Stability ([1]; PVP added, citric acid and sodium phosphate, pH 4.0, buffering strength 0.05 M) was “at least 20 days”, the “pazopanib monohydrochloride salt maintained until” value ([1]; PVP levels between 3.8 to 7.4% w/w, inclusive, citric acid and sodium phosphate, pH 4.0, 0.05 M) was 34 days and the “drug substance changes form to the hydrate and Citrate salts after reconstitution” value ([1]; buffered at pH 3.5 and below, citric acid and sodium phosphate, refrigerated 5° C.) was “less than 17 days”. The “form conversion started on day” value ([1]; citric acid and sodium citrate buffer, pH 4.0, buffer strength 0.05 M to 0.5 M, 5° C.) was at least 14 days, the “Conversion of pazopanib to the citrate salt observed at” value ([1]; citric acid and sodium citrate buffer, pH 4.0, buffer strength 0.05 M to 0.5 M, 25° C./60% RH) was “initial to day 7” and the “citrate salt first observed on day” value [1, 8] was 20 days. For the same compound, the “form conversion detected at day” value [1, 8] was 7 days, the “stable (physical stability of suspension)” value ([1]; citric acid and sodium phosphate buffer, pH 4.0, 0.05 to 0.20 M, no PVP, refrigerated conditions) was “up to 43 days” and the pH-solubility profile ([2]; between pH 3 and pH 6, water (FIG. 2)) was “steep slope”. The “solubility, effect of micronization” value ([2]; micronized active substance) was “enhance” and the “in-vivo exposure, effect of micronization” value [3] was “enhance”.
